From patent publication US20100068747A1, “Generic Assay for Monitoring Endocytosis” (Evotec Technologies GmbH, priority 2005, published 2010)
“Also recorded” adds a separate entry of the source.

Tests used:
[1] = tested on: U2OS/ETAR-GFP cells; assay: Serum supplements (insulin) in live cell labeling; format: cell-based, human; conditions: 20 nM in assay medium in labeling and chase incubations
Experimental: For serum supplements in live cell labeling, starvation was carried out in Opti-MEM medium (11058; Gibco—Invitrogen, Karlsruhe, Germany). The following labeling and chase incubations were conducted in assay medium with a 20 nM insulin supplement.

[2] = tested on: U2OS/ETAR-GFP cells; assay: Internalization pathway analysis in U2OS/ETAR-GFP cells; format: cell-based, human
Experimental: With regard to the internalization pathway analysis in U2OS/ETAR-GFP cells, RDE was inhibited by including 5 mM β-methyl-cyclodextrin (CD) in the leveling medium. The following labeling and chase incubations were conducted in standard assay medium. For inhibition of clathrin mediated endocytosis cells were subjected to hypotonic shock by incubating 5 minutes at 37° C. in a 1:1 starvation medium-ddH2O mixture and then were transferred into a potassium (K^+) depleted assay medium for temperature leveling. The following labeling and chase incubations were also conducted in K^+ depleted assay medium, which was prepared by substituting sodium salts for all potassium salts in HBSS. Inhibition of both pathways was achieved by combining both methods and including 5 mM CD in the leveling medium for CLAME inhibition. For CLAME controls, 5 μg/ml Alexa Fluor 488 conjugated transferrin was included during the labeling period for all inhibited pathway scenarios. Protocol procedures were conducted as described, however, lectins were omitted in the labeling step. For lipid raft-dependent pathways there were no control markers available.

[3] = tested on: U2OS/ETAR-GFP cells; assay: Lectin labeling of live cells, U2OS/ETAR-GFP; format: cell-based, human; conditions: TRITC-lectin, 10 nM at maximum
Experimental: (§1) Lectin labeling of live cells was conducted as follows: Cells were seeded as described above. After 24 hours cells were washed once with PBS and incubated in the incubator for another 2 hours in the respective standard medium without serum supplement to deprive them of serum factor mediated stimuli. This step was termed starvation period. Subsequently, cells were washed gently with PBS and incubated with 37° C. tempered assay medium comprised of Hank's Balanced Salt Solution (HBSS) pH 7.4, containing 20 mM HEPES and 30 mM D-glucose. The plate was left at RT for 30 minutes to slowly level its temperature and, thus, avoid capturing of temperature drop induced membrane dynamics. This period was termed leveling period. Then, assay medium was withdrawn and wells refilled with TRITC-lectin solutions at RT to start cell labeling. Several lectin concentrations in the low nano-molar range were tested. Molar concentrations were calculated from the data provided by Vector Labs. The plate was placed on a rotating shaker at low revolutions for 10 minutes while incubating. The start of the lectin incubation is referred to as assay starting point with t=0 min. After the 10 min incubation period the cells were gently washed with PBS and wells refilled with assay buffer at RT. Instantly thereafter, fluorescence signals were monitored predominately using the epifluorescence microscope.
(§2) The following microscopy and image analysis techniques were employed. When utilizing the epifluorescence microscope magnifications were adjusted according to the purpose of observation, e.g. single cell vs. cell collective. Concerning the filters U-MNU was used for Hoechst, U-MSWB for GFP, and U-N41007 for TRITC detection. Hoechst images were taken at 50 ms exposure time, GFP images at 100 to 200 ms and TRITC images needed 500 to 1000 ms. Overlay images were assembled with AnalySIS and tuned in color intensity to obtain the desired color contrast. Images taken to compare two experimental conditions, e.g. control vs. stimulus, featured identical exposure parameters. If possible, well areas were chosen that reflect similar states of confluence. Utilizing the Opera confocal fluorescence imager, the instrument was calibrated running standard methods for skew cropping (spatial camera alignments) and camera intensity normalization.

[4] = tested on: CHO/ETAR cells; assay: Lectin labeling of fixed cells, CHO/ETAR; format: cell-based; conditions: TRITC-lectin 10 nM and 20 nM
Experimental: (§3) Lectin labeling of fixed cells was conducted as follows: To detach confluent cells in order to prepare experiments for internalization studies, cells were always treated with EDTA solution instead of trypsin solution. For all seeding, washing, and labeling steps in 96-well plates a working volume of 100 μl per well was assessed. Cells were seeded out into a 96-well plate at different concentrations. U2OS/ETAR-GFP suspensions were adjusted to yield 2*10^4 cells/well, both of the CHO cell lines must be at 2.5*10^4 cells/well. Cells became confluent after 24 hours of incubation. In the following, they were washed with phosphate buffered saline (PBS) and fixed with 3% PFA for 20 minutes at RT. Then, cells were washed again with PBS and incubated in 10 nM and 20 nM solutions of each TRITC-lectin candidate in PBS, respectively. Again, cells were washed with PBS to remove excess lectin, and wells were refilled with PBS for analysis. For specificity controls, lectin solutions were incubated for 30 minutes prior to the application with an excess of the monosaccharide that represents the respective glyco-epitope.
as §2

[5] = tested on: CHO/ETAR cells; assay: Lectin labeling of live cells, CHO/ETAR; format: cell-based; conditions: TRITC-lectin, 10 nM at maximum
Experimental: as §1, §2

[6] = tested on: live cells; assay: Signal transformation on live cells after labeling with fluorescent lectins (all cell lines); format: cell-based; conditions: all experiments
Experimental: as §1, with “The plate was placed on a rotating shaker at low revolutions for 10 minutes while incubating. The start of the lectin incubation is referred to as assay starting point with t=0 min. After the 10 min incubation period the cells were gently washed with PBS and wells refilled with assay buffer at RT.” left out
The following microscopy and image analysis techniques were employed. […] Utilizing the Opera confocal fluorescence imager, the instrument was calibrated running standard methods for skew cropping (spatial camera alignments) and camera intensity normalization.

[7] = tested on: U2OS cells; assay: Specificity control with competing monosaccharide on fixed cells; format: cell-based, human; conditions: excess of inhibitory monosaccharide
Experimental: as §3

[8] = tested on: CHO/PAR-2 cells; assay: Lectin labeling of fixed cells, CHO/PAR-2; format: cell-based; conditions: TRITC-lectin 10 nM and 20 nM
Experimental: as §3, §2

[9] = tested on: CHO/PAR-2 cells; assay: Lectin labeling of live cells, CHO/PAR-2; format: cell-based; conditions: TRITC-lectin, 10 nM at maximum
Experimental: as §1, §2

[10] = tested on: U2OS/ETAR-GFP cells; assay: Lectin labeling of fixed cells, U2OS/ETAR-GFP; format: cell-based, human; conditions: TRITC-lectin 10 nM and 20 nM
Experimental: as §3, §2

[11] = tested on: CHO/ETAR cell membrane protein; assay: Lectin blotting of ETAR membrane sample; format: binding; conditions: biotinylated lectin 5 μg/ml
Experimental: (§4) Membrane preparation was conducted as follows: Cells were cultured in five T175 flasks until confluency. Confluent cells were detached by applying 3 ml of EDTA solution onto the PBS washed cells. Following a 20-minute incubation at 37° C. and 5% CO2, cells were resuspended in 12 ml of starvation medium (standard medium without FCS), counted, and centrifuged in a Heraeus Megafuge 1.0R at 133 rcf for 4 minutes. All subsequent steps were carried out on ice and with ice cold solutions. After unification of all pellet fractions, hypotonic lysis buffer was added to the cells at a ratio of 1 ml per 5*10^7 cells. Additionally, protease inhibitor cocktail was added to 50 μl per 5*10^7 cells. Cells were homogenized with 30 strokes in a 5 ml potter on ice, centrifuged at 4° C. and 917 rcf for 10 minutes, and the supernatant was stored in an ultracentrifuge tube on ice. The pellet fraction was homogenized and centrifuged once again as described above. The supernatants of both procedures were unified and centrifuged at 4° C. and 100,000 rcf for 45 minutes in a Sorvall ultra-centrifuge. The supernatant of this centrifugation procedure was withdrawn and the pellet dissolved in 0.5 ml or 1.0 ml modified SDS PAGE loading buffer containing Tris-HCl, SDS, glycerol, but no β-mercapto-ethanol or dyes and stored in small aliquots of 50 μl at −20° C.
SDS-Page of membrane samples was conducted as follows: Discontinuous 12% polyacrylamide gels were prepared according to a standard protocol. Broad range marker and 25 μg membrane protein were mixed 1:1 with loading buffer and loaded five times onto a mini gel in alternating order. The gels were run at U=100 V for the first 20 minutes. Subsequently, voltage was increased to U=150 V. The run was aborted as soon as the pyronin G band reached the end of the gel. For coomassie staining, gels were put in coomassie staining solution on a shaker at low revolutions for 45 min. The staining solution was removed and the gel incubated with destaining solution for one to two hours, exchanging the solution several times until the desired contrast was obtained. […]

[12] = tested on: CHO/PAR-2 cell membrane protein; assay: Lectin blotting of PAR-2 membrane sample; format: binding; conditions: biotinylated lectin 5 μg/ml
Experimental: as §4
SDS-Page of membrane samples was conducted as follows: Discontinuous 12% polyacrylamide gels were prepared according to a standard protocol. Broad range marker and 25 μg membrane protein were mixed 1:1 with loading buffer and loaded five times onto a mini gel in alternating order. The gels were run at U=100 V for the first 20 minutes. Subsequently, voltage was increased to U=150 V. The run was aborted as soon as the pyronin G band reached the end of the gel. For coomassie staining, gels were put in coomassie staining solution on a shaker at low revolutions for 45 min. The staining solution was removed and the gel incubated with destaining solution for one to two hours, exchanging the solution several times until the desired contrast was obtained.
Blotting of membrane samples was conducted as follows: For blotting, 3 mm packs of Whatman papers were extensively soaked in one of the diverging blotting buffers, AB I, AB II, and CB, and a pile was assembled in a semi-dry Trans-Blot 3D system from Bio-Rad as depicted in the sketch of FIG. 2. Hybond nitrocellulose membrane was submerged in AB II prior to assembly. To smooth out any air bubbles from the pile, a Pasteur pipette was rolled several times over the top layer. The apparatus was closed and ran at U=25 V for 45 minutes. Then, the pile was disassembled, the membrane submerged in Ponceau S solution and gently swayed for 2 minutes. For destaining, ddH2O was substituted for the staining solution, and the membrane was briefly rinsed twice. After drying under ambient conditions, the marker bands were marked with a ballpoint-pen. The membrane was cut into slices each displaying one marker and one sample lane.
Probing of membrane samples was conducted as follows: For classical western blotting, membranes were blocked in PBS containing 5% low fat dried milk powder. They were placed on a rotating shaker at low revolutions for 1 hour. Subsequently, membranes were sealed in plastic bags with blocking solution additionally containing 1 μg/ml anti-PAR-2 antibody (1:400) or 0.5 μg/ml of anti-ETAR antibody (1:500), depending on the respective recombinant cell type used for the sample. […]

[13] = tested on: U2OS/ETAR-GFP cells; assay: Effect of lectin incubation on morphology of live cells; format: cell-based, human; conditions: 5 nM, 10 nM, and 20 nM versus the control
Experimental: as §1

Substance | Live cell staining of U2OS/ETAR-GFP [3] | Staining of CHO/ETAR [4] | Live cell staining of CHO/ETAR [5] | fluorescent signal in the presence of the competing monosaccharide [7] | Staining of CHO/PAR-2 [8] | Live cell staining of CHO/PAR-2 [9] | Staining of U2OS/ETAR-GFP [10] | further results
porcine insulin | – | – | – | – | – | – | – | effect on spot formation of sWGA signal [1]: complete suppression of spot formation
Alexa-Fluor® 488-transferrin: Human holo-transferrin-Alexa Fluor 488 conjugate, standard marker of the clathrin-mediated pathway | – | – | – | – | – | – | – | signals of clathrin-mediated pathway marker ([2]; 5 μg/ml, all conditions but inhibition of the clathrin-dependent pathway): detected in the perinuclear region
Phaseolus vulgaris leucoagglutin [PHA-L] | spot formation | cell surface | cell surface, sequestered | reduced | signals clearly marking individual cells; also recorded: cell surface | strong signal contrast between the relatively unstained nucleus area and its fluorescing perimeter; also recorded: spot formation | extensive fluorescence was observed at the cell surface | stability of fluorescence signal over time [6]: fairly stable signals
β-methyl-cyclodextrin | – | – | – | – | – | – | – | spot formation of sWGA signal under inhibition of raft-dependent pathways ([2]; 5 mM in leveling medium, cholesterol extraction): did not impede the typical spot formation
Pisum sativum agglutin [PSA] | spot formation | – | – | – | reduced intensity with a high background; also recorded: weak cell surface | – | extensive fluorescence was observed at the cell surface | band at the same height as in the western (47 kDa, anti-ETAR) [11]: could clearly be detected
Lens culinaris agglutin [LCA] | spot formation | cell surface | fluorescence accumulation in the form of tiny points around the cell boundaries; also recorded: cell boundary, points | – | reduced intensity with a high background; also recorded: weak cell surface | spot formation | extensive fluorescence was observed at the cell surface | band at the same height as the western band (55 kDa, anti-PAR-2) [12]: one of them matching the height of the western band; bands detected above 35 kDa ([12]; exposure one to five minutes): four
Griffonia (Bandeiraea) simplicifolia lectin [GSL-I] | signal points were significantly smaller and less; also recorded: small, scattered | – | – | – | reduced intensity with a high background; also recorded: weak cell surface | – | very faint signal covering only some single cells; also recorded: weak single cell | –
Sophora japonica agglutin [SJA] | medium sized, scattered spots | – | – | reduced | – | – | only several little, spot-like signals on each cell; also recorded: weak spots on cell | effect on U2OS/ETAR-GFP cells, phase contrast [13]: Irritating effect
Phaseolus vulgaris erythroagglutin [PHA-E] | spot formation | cell surface | cell surface, sequestered | reduced | signals clearly marking individual cells; also recorded: cell surface | strong signal contrast between the relatively unstained nucleus area and its fluorescing perimeter; also recorded: spot formation | extensive fluorescence was observed at the cell surface | stability of fluorescence signal over time [6]: fairly stable signals
